Assay results from patent US20240239794A1, “PKC-Theta Modulators” (Exscientia AI Limited, priority 2021, published 2024).
Where two headings read alike, the source gives them in different places.

What was measured:
[1] = target: Recombinant human PKC-theta (His-tagged 362-706) (Homo sapiens (Human), UniProt Q04759); assay: PKC-theta inhibition assay (HTRF KinEASE kit); assay type: biochemical; settings: ATP 6.5 μM; for IC50: binned A to H, read-out: PKC-theta HTRF pIC50 (binned) (converted)
Procedure, shortened: (§1)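 HTRF KinEASE kinase assay, buffer supplemented with 10 mM MgCl2, 1 mM DTT, 0.1% Tween 20; enzyme at 10 ng/ml preincubated 30 min on ice with compound. PKC-theta: 525 nM STK substrate, 6.5 μM ATP, 30 min at 25° C; PKC-delta: 243 nM substrate, 5.7 μM ATP, 20 min. IC50 from 4-parameter fit of 10-dose series.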

[2] = tested on: IL-2 secretion by human effector memory T cells (TEM); assay: Effector memory T cells IL-2 release assay; assay type: cell-based; settings: T-cell, human CD4+ TEM cells, CD3/CD28 bead stimulation, 24 h
Procedure, shortened: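 Human CD4+ effector memory T cells (negatively sorted from donor PBMC), 5,000 per well, stimulated with CD3/CD28 beads and 10 semi-log compound doses for 24 h at 37° C, 0.1% DMSO. Supernatant IL-2 measured by HTRF; IC50 from 4-parameter logistic fit; viability checked by flow cytometry.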

[3] = target: Recombinant human PKC-delta (His-tagged 345-676) (Homo sapiens (Human), UniProt Q05655); assay: PKC-delta inhibition assay (HTRF KinEASE kit), PKC-theta/PKC-delta selectivity; assay type: biochemical; settings: ratio; for PKC-theta/PKC-delta selectivity: PKC-theta over PKC-delta, HTRF assays; for PKC-theta/PKC-delta selectivity (binned): binned A to G
Chain of Recombinant human PKC-delta (His-tagged 345-676) (Q05655 345-676): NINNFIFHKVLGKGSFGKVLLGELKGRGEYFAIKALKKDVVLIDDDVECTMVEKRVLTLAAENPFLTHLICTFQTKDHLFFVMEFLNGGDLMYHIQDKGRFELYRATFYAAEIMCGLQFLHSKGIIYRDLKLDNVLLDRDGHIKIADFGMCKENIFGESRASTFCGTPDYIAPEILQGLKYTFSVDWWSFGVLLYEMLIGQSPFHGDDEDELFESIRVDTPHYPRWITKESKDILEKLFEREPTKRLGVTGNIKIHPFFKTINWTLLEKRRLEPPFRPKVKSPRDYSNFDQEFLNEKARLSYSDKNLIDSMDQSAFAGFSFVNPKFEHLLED
Procedure, shortened: as §1

[4] = binned A to G, read-out: PKC-theta IL2 pIC50 (binned) (converted)
[5] = read-out: PKC-theta IL2 pIC50 (converted)

Chain of Recombinant human PKC-theta (His-tagged 362-706) (Q04759 362-706): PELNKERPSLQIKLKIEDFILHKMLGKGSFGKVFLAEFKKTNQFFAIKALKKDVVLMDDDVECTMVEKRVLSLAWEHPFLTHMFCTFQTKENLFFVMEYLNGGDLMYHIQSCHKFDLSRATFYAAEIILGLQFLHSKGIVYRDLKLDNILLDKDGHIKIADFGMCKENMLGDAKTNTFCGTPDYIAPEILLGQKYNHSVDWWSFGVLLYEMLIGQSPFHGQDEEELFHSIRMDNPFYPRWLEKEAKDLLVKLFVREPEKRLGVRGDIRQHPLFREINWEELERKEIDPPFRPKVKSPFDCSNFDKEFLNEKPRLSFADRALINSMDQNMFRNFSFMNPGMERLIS

Row | Compound | PKC-theta HTRF pIC50 [1] | IC50 [1] | IC50 [2, 4] | IC50 [2, 5] | PKC-theta/PKC-delta selectivity [3] | PKC-theta/PKC-delta selectivity (binned) [3]
1 | CC1(C)C(=O)Nc2nccc(-c3nn(C[C@]4(C)COCCN4)c4ccccc34)c21 [Example 109] | 7.7 | 10 to 31.6 nM | 316 to 1000 nM | 501 nM | 11 | D (D means a ratio of between 10 and 20)
2 | CC1(C)C(=O)Nc2nccc(-c3nn(C[C@]4(C)COCCN4)c4cc(F)ccc34)c21 [Example 110] | 7.6 | 10 to 31.6 nM | > 1000 nM | 1000 nM | 29 | C (C means a ratio of between 20 and 30)
3 | CC1(O)C(=O)Nc2nccc(-c3cn([C@@H]4CCNC4)c4ccccc34)c21 (stereo partly drawn) [Example 111] | 8.0 | 10 to 31.6 nM | 316 to 1000 nM | 398 nM | 7 | E (E means a ratio of between 5 and 10)
4 | CC1(C)C(=O)Nc2nccc(-c3nn(C4CCNCC4)c4cc(F)ccc34)c21 [Example 112] | 8.5 | 1 to 3.16 nM | 31.6 to 100 nM | 63.1 nM | 22 | C (C means a ratio of between 20 and 30)
